Entries after “also recorded” stand apart in the source; their conditions may differ. Each block holds one molecule with its values, some of them ahead of it.
Legend:
Plasma stability = format: in vitro ADME
Method: (§1) Plasma protein binding was measured using equilibrium dialysis; % bound=(1−[free compound in dialysate]/[total compound in retentate])×100. Plasma stability of […] compound in clarified freeze-thawed plasma was assessed by LC-MS/MS of supernatants after protein precipitation; 120 min data are reported for studies including 0, 10, 30, 60, and 120 min. Microsome stability of […] compound in liver microsomes (0.5 mg/ml) after 0, 5, 10, 20, 30, 60 min. incubation was assessed by LC/MS/MS of reaction extracts.

[1] = Liver microsome stability; format: in vitro ADME, human
Method: as §1

[2] = Solubility in 50 mM phosphate buffer pH 7.4; format: physicochemical
[3] = tested on: MFN2 T105M sciatic nerves; experiment: Sciatic nerve axonal mitochondrial motility, agonist applied to nerve; conditions: MFN2 T105M mouse sciatic nerve
Method: Sciatic nerves of 12-18 week old male or female MFN2 T105M mice were removed en bloc with the lumbar spine and axotomy at the tibial nerve, stained with TMEM ([…]) for 30 minutes in prewarmed Neurobasal Medium without phenol red (Thermo Fisher Scientific) at room temperature, washed, and maintained on the stage of a Nikon A1Rsi Confocal Microscope at 37 degrees C. for time-lapse confocal studies. Images were acquired with a 40× oil immersion objective at 1 frame every 5 or 10 seconds for sequential 10 minute periods. Mitofusin agonist chimera B-A/I was added after the first 10 minute imaging period (final concentrations of […]) and nerve axons imaged for another 40 minutes. Because there was no difference in mitochondrial trafficking or response to mitofusin agonist between male and female mice, the data were combined.

CMT2A MFN2 T105M mice = experiment: In vivo sciatic nerve mitochondrial motility in CMT2A mice; set-up: species or system mouse; conditions: IM 2 mg/kg twice, assessed 4 hours later
Method: Sciatic nerve mitochondrial motility was measured 4 hours later. Results described in FIG. 58 are for 2 CMT2A mice per group.

Mfn2 HR2 target peptide = target: T1, Mfn2 HR2 target peptide (Homo sapiens, UniProt O95140); experiment: HR1 peptide-HR2 target binding assay; conditions: in vitro binding assay devoid of cellular kinases
T1 construct: Gly linker (GGGG after the His tag)
T1 sequence (O95140 with tags, fused parts or gaps limits assumed): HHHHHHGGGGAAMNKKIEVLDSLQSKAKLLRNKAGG
From the text: The Mfn-derived fusion-promoting and -inhibiting mini-peptides (simulated to obtain the chemical Mfn agonists in TABLE 1 and TABLE 2) were modified from amino acid heptad repeats (HR) in the HR1 domain and predicted to interact with their counterparts in the carboxyl terminus HR2 domain within the Mfn stalk region (see e.g., FIG. 1, top panel). A high-throughput binding assay was designed whereby the target HR2 peptide sequences, modified to include amino terminal 6×His tags and Gly linkers, were bonded to Ni-chelate resin (20 μg/ml) and used as immobilized “receptor” for amino-FITC-tagged Mfn2 374-384 (agonist ligand) in which the Ser analogous to Ser378 was replaced with Asp to confer the negative charge essential for activity. For antagonist studies the ligand was amino-FITC-tagged Mfn2 406-418. The FITC peptide ligands are suspended at 1 mM in 30% DMSO, 70% water (to minimize spontaneous aggregation) and diluted into binding buffer (de-ionized water) to a final concentration of 25 μM in the presence or absence of competing compound. Dose-dependent loss of resin-bound FITC signal (485 nm excitation/538 nm emission) measured in a 96 well spectrofluorometer represents binding of compound to its HR2 target (see e.g., FIG. 10, FIG. 11). Either the ligand peptide or the receptor peptide can be modified to represent mutations, variations, or posttranslational modifications of Mfn2. […]
Target HR2 peptide sequence modified to include amino terminal 6×His tags and Gly linkers, were bonded to Ni-NTA resin (4.4 μg/ml) (Quiagen) and used as immobilized “receptor” for amino-FITC-tagged Mfn2 374-384 (ligand) in which the Ser analogous to Ser378 was replaced with Asp to confer the negative charge essential for activity. […] Resin-bound FITC signal (485 nm excitation/538 nm emission) measured in a 96 well spectrofluorometer (Spectramax M5e, Molecular Devices) represented binding to HR2 target. Competition binding isotherms were plotted and IC50 values calculated using Prism 7 (Graph Pad).

Mfn2 null MEFs = experiment: Mitochondrial elongation (aspect ratio) fusogenicity assay; format: cell-based, mouse
From the text: A cultured murine embryonic fibroblast assay system was used in which mitochondrial elongation (an increase in aspect ratio) reflects enhanced mitochondrial fusion.
A pharmacophore model was generated based on the interactions of HR1 and HR2 domains in the calculated structural model of Mfn2 in the closed conformation. The key features included hydrophobic interactions involving Mfn2 HR1: Val372 and Met376, and aromatic interactions and hydrogen bonding involving Mfn2 HR1 His380. […] A library comprising ˜14 million commercially available compounds was prepared in silico and evaluated using PHASE to fit these criteria. Top ranked hits were clustered, and filtered based on pharmacological properties using Qikprop. The top 55 (see TABLE 4) commercially available small molecules conforming to the model were selected for functional screening and purchased in 1 mg aliquots. Each compound was dissolved to a stock concentration of 10 mM in DMSO and applied to Mfn2 null MEFs overnight at a final concentration of 1 mM. […] Images were acquired by confocal microscopy. Each compound was scored for fusogenicity (see e.g., FIG. 24A) and % cell death (see e.g., FIG. 24B).
Wild-type MEFs were prepared from E10.5 c57/bl6 mouse embryos. […] MEFs were subcultured in DMEM (4.5 g/L glucose) plus 10% fetal bovine serum, 1× nonessential amino acids, 2 mM L-glutamine, 100U/ml penicillin and 100 ug/ml streptomycin.
Cells were excited with 408 nm (Hoechst), […] (MitoTracker Green and Calcein AM, GFP), or 637 nm (TMRE, MitoTracker Orange, Ethidium homodimer-1, and AF594-Dextran) laser diodes. For mitochondrial elongation studies mitochondrial aspect ratio (long axis/short axis) was calculated using automated edge detection and Image J software. Mitochondrial depolarization was calculated as % of green mitochondria visualized on MitoTracker Green and TMRE merged images, expressed as green/(green+yellow mitochondria)×100.

[4] = Parallel artificial membrane permeability assay (PAMPA); format: in vitro ADME
P-gp/MDR1 = P-gp/MDR1 (Homo sapiens, UniProt P08183); experiment: P-gp/MDR1 transport; format: in vitro ADME
[5] = In vivo pharmacokinetics in mice; set-up: species or system mouse; conditions: 2 hours after IM administration, 1 mg/kg
Method: (A) Three mice each were administered 1 mg/kg agonist IV, IP, or IM. Graphs are mean plasma concentration for each administration route. (B) Results for individual mice were administered 1 mg/kg indicated agonist IM.

[6] = tested on: MFN2 Asp378 and Ala378 mutants; experiment: Mitochondrial fusion in cells expressing MFN2 Ser378 mutants; format: cell-based, human; conditions: phosphomimic Asp378 vs nonphosphorylatable Ala378
From the text: On the basis of fluorescence resonance energy transfer (FRET) analysis of MFN2 labeled at the N and C termini, mitofusin agonists promoted an open MFN2 conformation favoring mitochondrial fusion, with a rank order paralleling that for HR2 binding and mitochondrial fusion (see e.g., FIG. 11G; compare to FIG. 11B and FIG. 11C), supporting allosteric activation.
Human Mfn2 Ser378 was mutated to Ala or Asp by site-directed mutagenesis using the QuikChange Lightning kit (Agilent Technologies Inc.) and primers: […]
Mfn2 and its mutants were sub-cloned into adenoviral vector Type 5 (dE1/E3) with RGD-fiber modification (Vector Biolabs) using BamHI/XhoI. All constructs were verified by Sanger DNA sequencing. Adeno-viral PINK1 was purchased from Vector Biolabs.

[7] = tested on: Mfn1/Mfn2 double null MEFs; experiment: Mitochondrial elongation in Mfn1/Mfn2 double null MEFs; format: cell-based, mouse

P-gp/MDR1, sequence (P08183 whole entry): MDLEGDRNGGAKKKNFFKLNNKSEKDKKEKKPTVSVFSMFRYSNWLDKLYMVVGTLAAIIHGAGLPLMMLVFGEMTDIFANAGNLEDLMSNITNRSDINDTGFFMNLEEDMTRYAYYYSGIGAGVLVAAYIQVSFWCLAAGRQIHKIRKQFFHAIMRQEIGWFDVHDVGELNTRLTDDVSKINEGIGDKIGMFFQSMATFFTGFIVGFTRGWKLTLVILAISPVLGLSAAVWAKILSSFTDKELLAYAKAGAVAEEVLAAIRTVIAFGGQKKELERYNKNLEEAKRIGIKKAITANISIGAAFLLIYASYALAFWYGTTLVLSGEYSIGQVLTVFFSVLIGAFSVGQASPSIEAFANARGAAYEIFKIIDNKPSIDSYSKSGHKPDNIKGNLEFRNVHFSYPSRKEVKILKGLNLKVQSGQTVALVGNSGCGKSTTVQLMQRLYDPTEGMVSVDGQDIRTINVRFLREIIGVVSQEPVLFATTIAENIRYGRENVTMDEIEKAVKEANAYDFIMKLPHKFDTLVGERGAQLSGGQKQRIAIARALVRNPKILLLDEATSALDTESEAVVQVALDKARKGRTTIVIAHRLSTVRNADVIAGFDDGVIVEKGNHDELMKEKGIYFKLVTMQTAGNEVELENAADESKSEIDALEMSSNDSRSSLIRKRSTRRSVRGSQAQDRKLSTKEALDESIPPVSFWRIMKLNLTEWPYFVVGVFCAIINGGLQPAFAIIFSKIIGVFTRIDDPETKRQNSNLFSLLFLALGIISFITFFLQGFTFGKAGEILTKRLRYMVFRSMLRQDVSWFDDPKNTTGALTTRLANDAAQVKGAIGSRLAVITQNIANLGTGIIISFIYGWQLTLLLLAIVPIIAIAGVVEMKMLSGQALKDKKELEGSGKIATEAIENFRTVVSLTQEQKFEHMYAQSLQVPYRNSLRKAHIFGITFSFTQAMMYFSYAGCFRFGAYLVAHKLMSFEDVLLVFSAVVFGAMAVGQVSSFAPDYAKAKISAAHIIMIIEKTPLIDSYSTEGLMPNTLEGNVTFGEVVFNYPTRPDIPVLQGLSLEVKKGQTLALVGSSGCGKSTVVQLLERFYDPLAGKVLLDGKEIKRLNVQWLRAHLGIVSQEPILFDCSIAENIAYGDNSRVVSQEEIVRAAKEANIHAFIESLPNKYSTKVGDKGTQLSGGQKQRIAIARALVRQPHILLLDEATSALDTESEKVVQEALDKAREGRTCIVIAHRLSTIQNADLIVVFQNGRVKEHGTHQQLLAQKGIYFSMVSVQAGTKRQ

plasma stability, in words (Plasma stability): stable in plasma | solubility, in words [2]: soluble
Molecule: CC1CCCCC1NC(=O)NCCSc1nnc(C2CC2)n1-c1ccccc1 (centres unmarked) [Regeneurin-S]
liver microsome stability, in words [1]: rapid degradation; also recorded: rapidly degraded by liver microsomes | sciatic nerve axonal mitochondrial motility [3]: rapidly correct mitochondrial dysmotility

binding of minipeptide to HR2 interacting domain (Mfn2 HR2 target peptide): did not
Molecule: Ser^378 minipeptide: "smallest fusion promoting minipeptide (residues 374 to 384)" of MFN2 HR1, with unsubstituted Ser^378 (LIMDSLHMAAR; UniProt O95140 374-384, looked up, fragment)

liver microsome stability, in words [1]: stability in the liver microsome assay
Molecule: Cn1c(CCCNC(=O)NC2CCOCC2)nnc1C1CC1 [Mitolityn-6, 1-(3-(5-cyclopropyl-4-methyl-4H-1,2,4-triazol-3-yl)propyl)-3-(tetrahydro-2H-pyran-4-yl)urea]
potency relative to other compounds, in words (Mfn2 null MEFs): highest potency

liver microsome stability, in words [1]: stability in the liver microsome assay | P-gp/MDR1 transport, in words (P-gp/MDR1): no reverse transport by P-gp
Molecule: CCn1c(CCCNC(=O)NC2CCOCC2)nnc1C1CC1 [Mitolityn-4, 1-(3-(5-cyclopropyl-4-ethyl-4H-1,2,4-triazol-3-yl)propyl)-3-(tetrahydro-2H-pyran-4-yl)urea]
passive diffusion across lipid-infused artificial membrane (PAMPA), in words [4]: no passive diffusion across lipid membrane | potency relative to other compounds, in words (Mfn2 null MEFs): highest potency

total plasma drug concentration [5]: undetectable | passive diffusion across lipid-infused artificial membrane (PAMPA), in words [4]: excellent passive diffusion | P-gp/MDR1 transport, in words (P-gp/MDR1): actively transported by P-gp/MDR1
Molecule: CC1CCCCC1NC(=O)NCCCc1nnc(C2CC2)n1-c1ccccc1 (centres unmarked) [Regeneurin-C, 1-(3-(5-cyclopropyl-4-phenyl-4H-1,2,4-triazol-3-yl)propyl)-3-(2-methylcyclohexyl)urea]

The next lines start with the molecule.

Molecule: O=C(NCCCc1nnc(C2CC2)n1-c1ccccc1)NC1CCOCC1 [Regeneurin-C/O, 1-(3-(5-cyclopropyl-4-phenyl-4H-1,2,4-triazol-3-yl)propyl)-3-(tetrahydro-2H-pyran-4-yl)urea]
sciatic nerve axon mitochondrial motility in vivo (CMT2A MFN2 T105M mice): corrects CMT2A neuronal mitochondrial dymotility in vivo; also recorded: reverses the characteristic mitochondrial immobility in sciatic nerve axons

Molecule: Cn1c(SCC(=O)Nc2sc3c(c2C(N)=O)CCC3)nnc1-c1ccccc1 [1-61, 2-{2-[(4-methyl-5-phenyl-4H-1,2,4-triazol-3-yl)sulfanyl]acetamido}-4H,5H,6H-cyclopenta[b]thiophene-3-carboxamide]
liver microsome stability, in words [1]: greater resistance to liver microsomal degradation | potency relative to other compounds, in words (Mfn2 null MEFs): more potent

Molecule: Ala^378 minipeptide: MFN2 374-384 minipeptide in which "Ser^378 was substituted (with Ala, Cys, Asn or Gly)": the Ala variant (LIMDALHMAAR; UniProt O95140 374-384, looked up, variant S378A)
binding of minipeptide to HR2 interacting domain (Mfn2 HR2 target peptide): did not

Molecule: CCn1c(SCC(=O)Nc2sc3c(c2C(N)=O)CCC3)nnc1C1CC1 [1-G11, 2-{2-[(5-cyclopropyl-4-ethyl-4H-1,2,4-triazol-3-yl)sulfanyl]acetamido}-4H,5H,6H-cyclopenta[b]thiophene-3-carboxamide]
liver microsome stability, in words [1]: greater resistance to liver microsomal degradation | potency relative to other compounds, in words (Mfn2 null MEFs): more potent

Molecule: CC1CCCCC1NC(=O)NCCSCc1ccccc1 (centres unmarked) [compound A, 1-[2-(benzylsulfanyl)ethyl]-3-(2-methylcyclohexyl)urea]
selectivity of fusogenic effect for MFN2 Ser378 mutants [6]: specific for the Asp^378 mutant | mitochondrial elongation in absence of both mitofusins [7]: did not occur | fusogenic activity (mitochondrial elongation), in words (Mfn2 null MEFs): induced mitochondrial elongation

Reference: US11760733B2, “Small molecule regulators of mitochondrial fusion and methods of use thereof” (Washington University, priority 2017, dated 2023)
